What was measured:
[1] = tested on: alloxan-induced diabetic mouse model; assay: Acute evaluation of in vivo oral hypoglycemic activity; conditions: diabetic mice, single oral dose 200 μg/kg body weight, mean ± SEM, n=6
Description: The sulfonylurea derivatives of oleanolic acid were screened for their oral hypoglycemic activity in vivo using the alloxan-induced diabetic mouse model. In an acute evaluation, the percentage change in blood glucose levels in diabetic mice after oral administration of the test compounds (200 μg/kg body weight) was measured and summarized in Table 1 and FIG. 2.
Briefly, animals were fasted overnight and the fasting blood glucose (BG) (0 hour) levels were calculated. Test and control compounds were administered at a fixed dose of 200 μg/kg body weight orally (homogenized suspension in 0.5% carboxymethyl cellulose (CMC) and permissible amounts of Tween 80). Animals in the vehicle-treated group were given an equal volume of 0.5% CMC and control group animals were untreated. Blood samples were removed from all animals at 2, 4, 6 and 24 hours and the percentage change in BG was calculated. The data were analyzed by one-way ANOVA followed by Dunnett's test. The results were expressed as mean±standard error of mean for each group, n=6 for each group, and p<0.01 or p<0.05 was considered as statistically significant.

[2] = tested on: alloxan-induced diabetic mouse model; assay: Sub-acute evaluation of in vivo oral hypoglycemic activity (21 days dosing, 7 days rest); conditions: diabetic mice, mean ± SEM, n=6; for % change in BG, 7 days rest period: day 28: 7 days rest after 21 days oral 200 μg/kg body weight; for % change in BG, 7 day / % change in BG, 14 day / % change in BG, 21 day: oral 200 μg/kg body weight daily; for % change in BG, 7 day: day 7; for % change in BG, 14 day: day 14; for % change in BG, 21 day: day 21
Description: The sulfonylurea derivative compounds were also screened for their oral hypoglycemic activity after several days of administration using the alloxan-induced diabetic mouse model, and percentage changes in blood glucose levels after oral administration ([…] body weight) were recorded (Table 2).
Briefly, animals were fasted overnight, and the fasting BG (0 day) levels were calculated. Test and control compounds were administered orally for 21 days at a fixed time and a fixed dose of 200 μg/kg body weight (homogenized suspension in 0.5% CMC and permissible amounts of Tween 80). After 21 days, treatment was stopped and animals were rested for a period of 7 days. Animals in the vehicle-treated group were then given an equal amount of 0.5% CMC and those of control group were untreated. Blood samples were removed from all animals throughout the course of the study at 7, 14, 21 and 28 days, and percentage change in BG was calculated. The data were analyzed by one-way ANOVA, followed by Dunnett's test. The results were expressed as mean±standard error of mean for each group, n=6 for each group, and p<0.01 or p<0.05 was considered as statistically significant (Table 2).

Compound | % change in BG, 2 h [1] [%] | % change in BG, 4 h [1] [%] | % change in BG, 6 h [1] [%] | % change in BG, 24 h [1] [%] | % change in BG, 7 days rest period [2] [%] | % change in BG, 7 day [2] [%] | % change in BG, 14 day [2] [%] | % change in BG, 21 day [2] [%]
CC1(C)CC[C@]2(C(=O)NCCc3ccc(S(=O)(=O)NC(=O)NC4CCCCC4)cc3)CC[C@]3(C)C(=CC[C@@H]4[C@@]5(C)CCC(=O)C(C)(C)[C@@H]5CC[C@]43C)[C@@H]2C1 [Compound 3a, N1-[p-(4-Oxo-18β-olean-12-ene-28-amido-ethyl)-benzenesulfonyl]-N2-cyclohexyl-urea] | −72.76 ± 0.78 | −77.76 ± 0.90 | −83.56 ± 0.83 | −74.44 ± 0.74 | −81.78 ± 0.90 | −76.87 ± 0.89 | −80.09 ± 0.90 | −87.65 ± 0.95
COc1ccc(Cl)cc1C(=O)NCCc1ccc(S(=O)(=O)NC(=O)NC2CCCCC2)cc1 [Glibenclamide, glibenclamide] | −35.55 ± 1.55 | −26.54 ± 1.32 | −15.58 ± 0.88 | −11.24 ± 0.11 | −28.48 ± 0.58 | −16.23 ± 0.32 | −22.57 ± 0.54 | −30.87 ± 0.58
CC1CCC(NC(=O)NS(=O)(=O)c2ccc(CCNC(=O)C34CCC(C)(C)CC3C3=CCC5C6(C)CCC(=O)C(C)(C)C6CCC5(C)C3(C)CC4)cc2)CC1 (stereo not drawn) [Compound 3b, N1-[4-(3-Oxo-18β-olean-12-ene-28-amido-ethyl)-benzenesulfonyl]-N2-(4-methylcyclohexyl)-urea] | −75.56 ± 0.86 | −80.97 ± 0.92 | −88.89 ± 0.98 | −76.76 ± 0.89 | −82.12 ± 1.17 | −80.80 ± 0.80 | −84.98 ± 1.16 | −88.89 ± 1.12
CC1(C)CC[C@]2(C(=O)O)CC[C@]3(C)C(=CC[C@@H]4[C@@]5(C)CC[C@H](O)C(C)(C)[C@@H]5CC[C@]43C)[C@@H]2C1 [Oleanolic acid, oleanolic acid] | −40.79 ± 1.20 | −48.66 ± 1.31 | −52.17 ± 1.31 | −51.01 ± 1.11 | −30.32 ± 0.83 | −10.56 ± 0.80 | −20.35 ± 0.72 | −37.68 ± 0.78
